This note sets out measurements from patent US20070049593A1 (priority 2004, published 2007).

For orientation: IC50 means the point on the concentration scale where inhibition reaches its midpoint. A lower IC50 goes with greater potency.

Where a name gives a salt, the structure may show the parent alone.

The target of this experiment is T1, HCV polymerase (Hepatitis C virus genotype 1b, UniProt P26663).
T1 construct: a region encoding NS5B (J Virol 1991 March, 65(3), 1105-13, 544 amino acids after deletion of 47 amino acids on the C-terminal); 6xHis (C); made in house; host or cells: Escherichia coli
The experiment is described as follows: biochemical. Also noted: species or system HCV BK strain. The procedure, abridged:
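His-tagged NS5B (BK strain, 47-aa C-terminal deletion, E. coli-expressed) at 0.5 μg/ml copied 5 μg/ml run-off RNA bearing the HCV 3′ UTR with 2 μM UTP plus [3H]UTP, 50 μM ATP/GTP, in pH 7.5 Tris with 5 mM MgCl2, 25 °C, 90 min. TCA-precipitated RNA was counted and IC50 calculated.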

T1 sequence (P26663 2420-2963): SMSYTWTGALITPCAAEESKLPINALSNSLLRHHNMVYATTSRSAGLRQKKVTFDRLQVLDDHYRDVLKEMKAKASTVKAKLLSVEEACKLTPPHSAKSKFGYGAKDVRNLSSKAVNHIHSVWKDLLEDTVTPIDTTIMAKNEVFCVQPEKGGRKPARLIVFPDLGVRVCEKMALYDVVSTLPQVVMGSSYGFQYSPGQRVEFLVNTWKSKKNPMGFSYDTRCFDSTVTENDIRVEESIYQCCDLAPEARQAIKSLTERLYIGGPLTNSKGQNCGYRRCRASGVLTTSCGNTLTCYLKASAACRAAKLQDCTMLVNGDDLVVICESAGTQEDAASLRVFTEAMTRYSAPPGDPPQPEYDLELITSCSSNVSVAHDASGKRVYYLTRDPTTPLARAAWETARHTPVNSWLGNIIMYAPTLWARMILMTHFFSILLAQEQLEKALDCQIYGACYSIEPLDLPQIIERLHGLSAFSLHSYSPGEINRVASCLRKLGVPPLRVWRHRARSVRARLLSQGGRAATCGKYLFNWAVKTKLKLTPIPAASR

On to `O=C(O)c1ccc2c(C3CCCCC3)c3n(c2c1)CCN(CC(=O)N1CCOCC1)c1ccccc1-3` [Example 1-26, 13-cyclohexyl-5-[2-(morpholin-4-yl)-2-oxoethyl]-6,7-dihydro-5H-benzo[5,6][1,4]diazepino[7,1-a]indole-10-carboxylic acid], for which the IC50 is < 100 nM.

On to `COc1ccc2c(c1)OCCn1c-2c(C2CCCCC2)c2ccc(C(=O)N[C@@H](Cc3ccc(O)cc3)c3n[nH]c(C)n3)cc21` [Example 2-526, N—[(S)-2-(4-hydroxyphenyl)-1-(5-methyl-1H-1,2,4-triazol-3-yl)ethyl]-12-cyclohexyl-3-methoxy-6,7-dihydro-5-oxa-7a-azadibenzo[a,e]azulene-9-carboxamide], for which the IC50 is < 100 nM.

As to `CCN(CCN1CCCCC1)c1cccc2c1OCCn1c-2c(C2CCCCC2)c2ccc(C(=O)O)cc21` [Example 2-480, 12-cyclohexyl-4-{N-ethyl-N-[2-(piperidin-1-yl)ethyl]amino}-6,7-dihydro-5-oxa-7a-azadibenzo[a,e]azulene-9-carboxylic acid dihydrochloride], the IC50 is < 100 nM.

Regarding `COc1ccc2c(c1)OCCn1c-2c(C2CCCCC2)c2ccc(C(=O)NC3(C(=O)Nc4ccc(/C=C/C(=O)O)cc4OC)CCC3)cc21` [Example 2-451, (E)-3-[4-({1-[(12-cyclohexyl-3-methoxy-6,7-dihydro-5-oxa-7a-azadibenzo[a,e]azulene-9-carbonyl)amino]cyclobutanecarbonyl}amino)-3-methoxyphenyl]acrylic acid], the 50% inhibitory concentration (IC50) is < 100 nM.

In the case of `COc1ccc2c(c1)OCCn1c-2c(C2CCCCC2)c2ccc(C(=O)NC(C)(C)c3nc4cc(F)ccc4[nH]3)cc21` [Example 2-380, N-[1-(5-fluoro-1H-benzimidazol-2-yl)-1-methylethyl]-12-cyclohexyl-3-methoxy-6,7-dihydro-5-oxa-7a-azadibenzo[a,e]azulene-9-carboxamide], the IC50 is < 100 nM.

Regarding `CCN1CCN(C(=O)CN2CCn3c(c(C4CCCCC4)c4ccc(C(=O)O)cc43)-c3ccc(F)cc32)CC1` [Example 1-162, 13-cyclohexyl-5-[2-(4-ethylpiperazin-1-yl)-2-oxoethyl]-3-fluoro-6,7-dihydro-5H-benzo[5,6][1,4]diazepino[7,1-a]indole-10-carboxylic acid dihydrochloride], the IC50 is < 100 nM.

With `COc1ccc2c(c1)N(C)CCn1c-2c(C2CCCCC2)c2ccc(C(=O)O)cc21` [Example 1-594, 13-cyclohexyl-3-methoxy-5-methyl-6,7-dihydro-5H-benzo[5,6][1,4]diazepino[7,1-a]indole-10-carboxylic acid], the 50% inhibitory concentration (IC50) is < 100 nM.

Take `CN1CCN(C(=O)CN2CCn3c(c(C4CCCCC4)c4ccc(C(=O)O)cc43)-c3ccccc32)CC1` [Example 1-50, 13-cyclohexyl-5-[2-(4-methylpiperazin-1-yl)-2-oxoethyl]-6,7-dihydro-5H-benzo[5,6][1,4]diazepino[7,1-a]indole-10-carboxylic acid dihydrochloride]: the IC50 is < 100 nM.

For the molecule `Cc1cc2nc(C(C)(C)NC(=O)c3ccc4c(C5CCCCC5)c5n(c4c3)CCOc3ccccc3-5)[nH]c2cc1C(=O)O` [Example 2-283], the half-inhibitory concentration (IC50) was < 100 nM.

For the molecule `Cc1cc(COc2ccc3c(c2)OCCn2c-3c(C3CCCCC3)c3ccc(C(=O)O)cc32)no1` [Example 2-32, 12-cyclohexyl-3-(5-methylisoxazol-3-ylmethoxy)-6,7-dihydro-5-oxa-7a-azadibenzo[a,e]azulene-9-carboxylic acid], the IC50 is < 100 nM.

On to `O=C(O)c1ccc2c(C3CCCCC3)c3n(c2c1)CCOc1c(-c2ccccc2CCN2CCCCC2)cccc1-3` [Example 2-553, 12-cyclohexyl-4-{2-[2-(piperidin-1-yl)ethyl]phenyl}-6,7-dihydro-5-oxa-7a-azadibenzo[a,e]azulene-9-carboxylic acid monohydrochloride], for which the IC50 is < 100 nM.

On to `COc1ccc2c(c1)OCCn1c-2c(C2CCCCC2)c2ccc(C(=O)N[C@@H](CCC(N)=O)C(=O)O)cc21` [Example 2-372, (S)-4-carbamoyl-2-[(12-cyclohexyl-3-methoxy-6,7-dihydro-5-oxa-7a-azadibenzo[a,e]azulene-9-carbonyl)amino]butyric acid], for which the IC50 is < 100 nM.

Regarding `O=C(O)c1ccc2c(C3CCCCC3)c3n(c2c1)CCOc1c-3cccc1N(CCN1CCCCC1)Cc1ccccc1` [Example 2-191, 4-{N-benzyl-N-[2-(piperidin-1-yl)ethyl]amino}-12-cyclohexyl-6,7-dihydro-5-oxa-7a-azadibenzo[a,e]azulene-9-carboxylic acid dihydrochloride], the IC50 is < 100 nM.

`COCCC1CCCCN1CCN1CCn2c(c(C3CCCCC3)c3ccc(C(=O)O)cc32)-c2ccc(C)cc21` (stereo not drawn) [Example 1-542, 13-cyclohexyl-5-{2-[2-(2-methoxyethyl)piperidin-1-yl]ethyl}-3-methyl-6,7-dihydro-5H-benzo[5,6][1,4]diazepino[7,1-a]indole-10-carboxylic acid dihydrochloride]: the IC50 is < 100 nM.

For `CCCN(CC)CCCN1CCn2c(c(C3CCCCC3)c3ccc(C(=O)O)cc32)-c2ccc(Cl)cc21` [Example 1-428, 3-chloro-13-cyclohexyl-5-[3-(N-ethyl-N-propylamino)propyl]-6,7-dihydro-5H-benzo[5,6][1,4]diazepino[7,1-a]indole-10-carboxylic acid dihydrochloride], the IC50 is < 100 nM.

As to `CN1CCn2c(c(C3CCCCC3)c3ccc(C(=O)O)cc32)-c2ccc(OCc3ccccc3)cc21` [Example 1-593, 3-benzyloxy-13-cyclohexyl-5-methyl-6,7-dihydro-5H-benzo[5,6][1,4]diazepino[7,1-a]indole-10-carboxylic acid], the concentration for half-maximal inhibition (IC50) is < 100 nM.

Turning to `CC(C)N1CCN(CCN2CCn3c(c(C4CCCCC4)c4ccc(C(=O)O)cc43)-c3ccccc32)CC1` [Example 1-48, 13-cyclohexyl-5-[2-(4-isopropylpiperazin-1-yl)ethyl]-6,7-dihydro-5H-benzo[5,6][1,4]diazepino[7,1-a]indole-10-carboxylic acid trihydrochloride], the IC50 was < 100 nM.

Take `O=C(O)c1ccc2c(C3CCCCC3)c3n(c2c1)CCN(CCc1ccncc1)c1ccccc1-3` [Example 1-182, 13-cyclohexyl-5-[2-(pyridin-4-yl)ethyl]-6,7-dihydro-5H-benzo[5,6][1,4]diazepino[7,1-a]indole-10-carboxylic acid dihydrochloride]: the concentration for half-maximal inhibition (IC50) is < 100 nM.

`CC(C)(C)OC(=O)N1CCC(OCCOc2cccc3c2OCCn2c-3c(C3CCCCC3)c3ccc(C(=O)O)cc32)CC1` [Example 2-465, 4-[2-(1-tert-butoxycarbonylpiperidin-4-yloxy)ethoxy]-12-cyclohexyl-6,7-dihydro-5-oxa-7a-azadibenzo[a,e]azulene-9-carboxylic acid]: the concentration for half-maximal inhibition (IC50) is < 100 nM.

On to `COc1ccc2c(c1)-c1c(C3CCCCC3)c3ccc(C(=O)O)cc3n1CCO2` [Example 2-6, 12-cyclohexyl-2-methoxy-6,7-dihydro-5-oxa-7a-azadibenzo[a,e]azulene-9-carboxylic acid], for which the IC50 was in the range of 100 to 1000 nM.

On to `O=C(O)c1ccc2c(C3CCCCC3)c3n(c2c1)CCN(CCN1CCCCCC1)c1cc(F)ccc1-3` [Example 1-234, 5-[2-(azepan-1-yl)ethyl]-13-cyclohexyl-3-fluoro-6,7-dihydro-5H-benzo[5,6][1,4]diazepino[7,1-a]indole-10-carboxylic acid dihydrochloride], for which the concentration for half-maximal inhibition (IC50) was < 100 nM.
